Measured values reported in PubChem BioAssay AID2060508 (Molecular Pharmacology Branch, DTP, NCI, 2025).
pIC50: −log10 of the molar value.

Test system: 454973-116-R2-J3-PDC spheroids, viability, % test/control
Assay: Anticancer human tumor 454973-116-R2-J3-PDC patient-derived pancreatic carcinoma cell line growth inhibition [GQUAD]
Conditions: spheroids with HUVEC and MSC; for pIC50: curve of first compound; for viability, T/C: stronger effect = lower value
Description: DNA G-quadruplex Stabilizer Agents in Combinations in Complex Spheroids
A high-throughput screen of multi-cell type tumor spheroids was designed to identify active combinations of DNA G-quadruplex stabilizer agents and targeted small molecules. Complex spheroids include a stromal component modeled by human endothelial cells (HUVEC) and fibroblasts modeled by human mesenchymal stem cells (MSCs). The concentration ranges selected for each drug and investigational agent were based upon clinically achievable concentrations if the clinical Cmax of the agent was known.
Compounds. The drugs and investigational agents: pidnarulex (CX-5461; NSC782164), APTO-253 (NSC789042), BRACO-19 (NSC847499), peposertib (NSC802822), ceralasertib (NSC780249), elimusertib (NSC800525), camonsertib (NSC841442), AZD-1390 (NSC803789), olaparib (NSC753686), talazoparib (NSC767125), ART-558 (NSC835418), sotorasib (NSC818433), MRTX-1133 (NSC836407), SN-38 (NSC673596), topotecan (NSC609699), etoposide (NSC141540), doxorubicin (NSC123127), gemcitabine (NSC613327), 5-fluorouracil (NSC19893), paclitaxel (NSC125973), vemurafenib (NSC761431), panobinostat (NSC761190), R-306465 (JNJ-16241199; NSC773264), adavosertib (NSC754352), TP-3654 (NSC805149), carboplatin (NSC241240), KSQ-4279 (NSC840948), and staurosporine (NSC755774) were obtained from the National Cancer Institute (NCI) Developmental Therapeutics Program Chemical Repository (34). The FDA-approved anticancer drug set is available from the NCI Developmental Therapeutics Program. […] The stock solutions were prepared in dimethyl sulfoxide (DMSO, Sigma-Aldrich, St. Louis, MO, cat. D2650) at 800-fold the tested concentration and stored at -70 degrees C prior to their use. All drugs and investigational agents were tested over a range starting from a high concentration at or near the clinical Cmax and decreasing in half-log increments. If the clinical Cmax for an agent had not been determined, the highest concentration tested was 10 microM.
2.3 Cell Culture. All cells were maintained in an incubator at 37 degrees C and 5% CO2 with 95% humidity. The PDC lines were cultured according to standard operating procedures established by the NCI PDMR. All PDCs were thawed and cultured in Matrigel-coated flasks prepared with a working solution of 1X Ham's F-12 nutrient mix, without supplementation (Invitrogen, cat. 11765054), 100 U/mL penicillin-streptomycin (Invitrogen, cat. 15140122), and 2.5% Matrigel (Corning Inc., cat. 354248) for the first three passages. The 857933-349-R-J2-PDC line was cultured in 6C/Colon 1B media, which includes advanced DMEM/F-12 (Thermo Fisher Scientific, cat. 12634028), 10 mM HEPES (Thermo Fisher Scientific, cat. 15630080), 1X GlutaMAX supplement (Thermo Fisher Scientific, cat. 35050061), 0.1 mg/mL primocin (InvivoGen, cat. ant-pm-2), 10% defined fetal bovine serum, heat inactivated (HyClone Laboratories Inc., cat. SH30070.03HI), 50% L-WRN conditioned media (ATCC, cat. CRL-3276), 1.25 mM N-Acetyl-L-cysteine (Sigma-Aldrich, cat. A9165), 10 mM nicotinamide (Sigma-Aldrich, cat. N0636), 1X B-27 supplement (Thermo Fisher Scientific, cat. 17504044), 1X N-2 supplement (Thermo Fisher Scientific, cat. 17502048), 10 microM Y-27632 dihydrochloride (Tocris Bioscience, cat. 1254), and 50 ng/mL human EGF recombinant protein (Thermo Fisher Scientific, cat. PHG0311). The 485176-168-R4-J1-PDC line was cultured in Panc media, which includes all 6C/Colon 1B media components plus 100 ng/mL human FGF-10 (Thermo Fisher Scientific, cat. 100-26), 500 nM SB-431542 (Selleckchem, cat. S1067), and gastrin (Tocris, cat. 3006).
[…]

[1] = second compound 0.0316 µM, first compound 0.0316 µM
[2] = second compound 0.0316 µM, first compound 0.1 µM
[3] = second compound 0.0316 µM, first compound 0.316 µM
[4] = second compound 0.0316 µM, first compound 1 µM
[5] = second compound 0.0316 µM, first compound 3.16 µM
[6] = second compound 0.0316 µM, first compound 10 µM
[7] = second compound 0.1 µM, first compound 0.0316 µM
[8] = second compound 0.1 µM, first compound 0.1 µM
[9] = second compound 0.1 µM, first compound 0.316 µM
[10] = second compound 0.1 µM, first compound 1 µM
[11] = second compound 0.1 µM, first compound 3.16 µM
[12] = second compound 0.1 µM, first compound 10 µM
[13] = second compound 0.316 µM, first compound 0.0316 µM
[14] = second compound 0.316 µM, first compound 0.1 µM
[15] = second compound 0.316 µM, first compound 0.316 µM
[16] = second compound 0.316 µM, first compound 1 µM
[17] = second compound 0.316 µM, first compound 3.16 µM
[18] = second compound 0.316 µM, first compound 10 µM
[19] = second compound 1 µM, first compound 0.0316 µM
[20] = second compound 1 µM, first compound 0.1 µM
[21] = second compound 1 µM, first compound 0.316 µM
[22] = second compound 1 µM, first compound 1 µM
[23] = second compound 1 µM, first compound 3.16 µM
[24] = second compound 1 µM, first compound 10 µM
[25] = second compound 3.16 µM, first compound 0.0316 µM
[26] = second compound 3.16 µM, first compound 0.1 µM
[27] = second compound 3.16 µM, first compound 0.316 µM
[28] = second compound 3.16 µM, first compound 1 µM
[29] = second compound 3.16 µM, first compound 3.16 µM
[30] = second compound 3.16 µM, first compound 10 µM
[31] = second compound 10 µM, first compound 0.0316 µM
[32] = second compound 10 µM, first compound 0.1 µM
[33] = second compound 10 µM, first compound 0.316 µM
[34] = second compound 10 µM, first compound 1 µM
[35] = second compound 10 µM, first compound 3.16 µM
[36] = second compound 10 µM, first compound 10 µM
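Note: spheroids exposed to compounds for seven days.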

Nc1ccn(C2OC(CO)C(O)C2(F)F)c(=O)n1 (centres undefined) + CN(C)c1ccc(Nc2c3ccc(NC(=O)CCN4CCCC4)cc3nc3cc(NC(=O)CCN4CCCC4)ccc23)cc1
pIC50 (second compound 0.0316 µM): > 7.50
pIC50 (second compound 0.1 µM): > 7.50
pIC50 (second compound 0.316 µM): > 7.50
pIC50 (second compound 1 µM): > 7.50
pIC50 (second compound 3.16 µM): > 7.50
pIC50 (second compound 10 µM): > 7.50
viability, T/C [1]: 19%
viability, T/C [2]: 13.3%
viability, T/C [3]: 16.6%
viability, T/C [4]: 13.1%
viability, T/C [5]: 14.7%
viability, T/C [6]: 15.6%
viability, T/C [7]: 20.7%
viability, T/C [8]: 13.5%
viability, T/C [9]: 14.9%
viability, T/C [10]: 16.6%
viability, T/C [11]: 13.2%
viability, T/C [12]: 15.4%
viability, T/C [13]: 16.9%
viability, T/C [14]: 15.3%
viability, T/C [15]: 15.3%
viability, T/C [16]: 14.8%
viability, T/C [17]: 13.3%
viability, T/C [18]: 14.8%
viability, T/C [19]: 15.6%
viability, T/C [20]: 14.4%
viability, T/C [21]: 16.4%
viability, T/C [22]: 14%
viability, T/C [23]: 14.2%
viability, T/C [24]: 15.9%
viability, T/C [25]: 18%
viability, T/C [26]: 14.7%
viability, T/C [27]: 17.4%
viability, T/C [28]: 13.3%
viability, T/C [29]: 14.6%
viability, T/C [30]: 14.7%
viability, T/C [31]: 22.8%
viability, T/C [32]: 14.2%
viability, T/C [33]: 16.9%
viability, T/C [34]: 17.6%
viability, T/C [35]: 19.7%
viability, T/C [36]: 19.8%

CC(C)n1c(=O)n(C)c2cnc3cc(F)c(-c4ccc(OCCCN5CCCCC5)nc4)cc3c21 + Cc1[nH]c2ccc(F)cc2c1-c1nc2c3cccnc3c3ncccc3c2[nH]1
pIC50 (second compound 0.0316 µM): < 5.00
pIC50 (second compound 0.1 µM): < 5.00
pIC50 (second compound 0.316 µM): < 5.00
pIC50 (second compound 1 µM): < 5.00
pIC50 (second compound 3.16 µM): < 5.00
pIC50 (second compound 10 µM): < 5.00
viability, T/C [1]: 112%
viability, T/C [2]: 101%
viability, T/C [3]: 105%
viability, T/C [4]: 101%
viability, T/C [5]: 95.8%
viability, T/C [6]: 67.5%
viability, T/C [7]: 95.8%
viability, T/C [8]: 107%
viability, T/C [9]: 109%
viability, T/C [10]: 102%
viability, T/C [11]: 92.5%
viability, T/C [12]: 63.7%
viability, T/C [13]: 110%
viability, T/C [14]: 99%
viability, T/C [15]: 111%
viability, T/C [16]: 117%
viability, T/C [17]: 83.9%
viability, T/C [18]: 65%
viability, T/C [19]: 94.8%
viability, T/C [20]: 101%
viability, T/C [21]: 112%
viability, T/C [22]: 93.3%
viability, T/C [23]: 85.2%
viability, T/C [24]: 61.5%
viability, T/C [25]: 89.1%
viability, T/C [26]: 101%
viability, T/C [27]: 96.8%
viability, T/C [28]: 97.5%
viability, T/C [29]: 96%
viability, T/C [30]: 66%
viability, T/C [31]: 101%
viability, T/C [32]: 91.9%
viability, T/C [33]: 88.3%
viability, T/C [34]: 93.7%
viability, T/C [35]: 79.9%
viability, T/C [36]: 59.7%
